# Test results taken from patent US8067454B2, “Thio-substituted Anthra [1, 2-d] imidazole- 6, 11-dione derivatives, preparation method and application thereof” (National Defense Medical Center, priority 2010, dated 2011).
# Tests used:
# [1] = tested on: CCRF-CEM; assay: NCI 60-cell drug screen, Leukemia CCRF-CEM; assay type: cell-based, human; conditions: 1.00E−5 Molar
# [2] = tested on: K-562; assay: NCI 60-cell drug screen, Leukemia K-562; assay type: cell-based, human; conditions: 1.00E−5 Molar
# [3] = tested on: RPMI-8226; assay: NCI 60-cell drug screen, Leukemia RPMI-8226; assay type: cell-based, human; conditions: 1.00E−5 Molar
# [4] = tested on: EKVX; assay: NCI 60-cell drug screen, Non-Small Cell Lung Cancer EKVX; assay type: cell-based, human; conditions: 1.00E−5 Molar
# [5] = tested on: NCI-H226; assay: NCI 60-cell drug screen, Non-Small Cell Lung Cancer NCI-H226; assay type: cell-based, human; conditions: 1.00E−5 Molar
# [6] = tested on: NCI-H23; assay: NCI 60-cell drug screen, Non-Small Cell Lung Cancer NCI-H23; assay type: cell-based, human; conditions: 1.00E−5 Molar
# [7] = tested on: NCI-H460; assay: NCI 60-cell drug screen, Non-Small Cell Lung Cancer NCI-H460; assay type: cell-based, human; conditions: 1.00E−5 Molar
# [8] = tested on: HT29; assay: NCI 60-cell drug screen, Colon Cancer HT29; assay type: cell-based, human; conditions: 1.00E−5 Molar
# [9] = tested on: KM12; assay: NCI 60-cell drug screen, Colon Cancer KM12; assay type: cell-based, human; conditions: 1.00E−5 Molar
# [10] = tested on: SW-620; assay: NCI 60-cell drug screen, Colon Cancer SW-620; assay type: cell-based, human; conditions: 1.00E−5 Molar
# [11] = tested on: SF-268; assay: NCI 60-cell drug screen, CNS Cancer SF-268; assay type: cell-based, human; conditions: 1.00E−5 Molar
# [12] = tested on: SNB-19; assay: NCI 60-cell drug screen, CNS Cancer SNB-19; assay type: cell-based, human; conditions: 1.00E−5 Molar
# [13] = tested on: MALME-3M; assay: NCI 60-cell drug screen, Melanoma MALME-3M; assay type: cell-based, human; conditions: 1.00E−5 Molar
# [14] = tested on: MDA-MB-435; assay: NCI 60-cell drug screen, Melanoma MDA-MB-435; assay type: cell-based, human; conditions: 1.00E−5 Molar
# [15] = tested on: SK-MEL-2; assay: NCI 60-cell drug screen, Melanoma SK-MEL-2; assay type: cell-based, human; conditions: 1.00E−5 Molar
# [16] = tested on: UACC-62; assay: NCI 60-cell drug screen, Melanoma UACC-62; assay type: cell-based, human; conditions: 1.00E−5 Molar
# [17] = tested on: OVCAR-3; assay: NCI 60-cell drug screen, Ovarian Cancer OVCAR-3; assay type: cell-based, human; conditions: 1.00E−5 Molar
# [18] = tested on: OVCAR-5; assay: NCI 60-cell drug screen, Ovarian Cancer OVCAR-5; assay type: cell-based, human; conditions: 1.00E−5 Molar
# [19] = tested on: CAKI-1; assay: NCI 60-cell drug screen, Renal Cancer CAKI-1; assay type: cell-based, human; conditions: 1.00E−5 Molar
# [20] = tested on: RXF 393; assay: NCI 60-cell drug screen, Renal Cancer RXF 393; assay type: cell-based, human; conditions: 1.00E−5 Molar
# [21] = tested on: TK-10; assay: NCI 60-cell drug screen, Renal Cancer TK-10; assay type: cell-based, human; conditions: 1.00E−5 Molar
# [22] = tested on: DU-145; assay: NCI 60-cell drug screen, Prostate Cancer DU-145; assay type: cell-based, human; conditions: 1.00E−5 Molar
# [23] = tested on: MCF7; assay: NCI 60-cell drug screen, Breast Cancer MCF7; assay type: cell-based, human; conditions: 1.00E−5 Molar
# [24] = tested on: HS 578T; assay: NCI 60-cell drug screen, Breast Cancer HS 578T; assay type: cell-based, human; conditions: 1.00E−5 Molar
# [25] = tested on: T-47D; assay: NCI 60-cell drug screen, Breast Cancer T-47D; assay type: cell-based, human; conditions: 1.00E−5 Molar
# [26] = tested on: MDA-MB-468; assay: NCI 60-cell drug screen, Breast Cancer MDA-MB-468; assay type: cell-based, human; conditions: 1.00E−5 Molar
# [27] = tested on: SVG p12, GBM8401 and GBM8901; assay: MTT assay, normal cell versus tumor cells (categories 39-3 to 39-7); conditions: tumor cell survival rate less than 80%; FIG. 5A
SMILES,"Growth Percent, CCRF-CEM [1] [%]","Growth Percent, K-562 [2] [%]","Growth Percent, RPMI-8226 [3] [%]","Growth Percent, EKVX [4] [%]","Growth Percent, NCI-H226 [5] [%]","Growth Percent, NCI-H23 [6] [%]","Growth Percent, NCI-H460 [7] [%]","Growth Percent, HT29 [8] [%]","Growth Percent, KM12 [9] [%]","Growth Percent, SW-620 [10] [%]","Growth Percent, SF-268 [11] [%]","Growth Percent, SNB-19 [12] [%]","Growth Percent, MALME-3M [13] [%]","Growth Percent, MDA-MB-435 [14] [%]","Growth Percent, SK-MEL-2 [15] [%]","Growth Percent, UACC-62 [16] [%]","Growth Percent, OVCAR-3 [17] [%]","Growth Percent, OVCAR-5 [18] [%]","Growth Percent, CAKI-1 [19] [%]","Growth Percent, RXF 393 [20] [%]",further results
"O=C1c2ccccc2C(=O)c2c1ccc1nc(S)[nH]c21 [f1-0, 2-Mercapto-1(3)H-anthra[1,2-d]imidazole-6,11-dione]",61.91,108.55,101.22,50.53,83.74,113.34,98.61,103.79,101.59,97.56,90.30,91.30,87.50,114.02,134.35,84.17,86.94,129.22,91.23,141.66,"Growth Percent, TK-10 [21]: 111.74%; Growth Percent, DU-145 [22]: 99.28%; Growth Percent, MCF7 [23]: 75.91%; Growth Percent, HS 578T [24]: 103.53%; Growth Percent, T-47D [25]: 81.86%; Growth Percent, MDA-MB-468 [26]: 87.69%"
"CCSc1nc2ccc3c(c2[nH]1)C(=O)c1ccccc1C3=O [f1-1, 2-(Ethylthio)-1H-anthra[1,2-d]imidazole-6,11-dione]",36.87,86.29,28.52,43.67,62.07,87.41,38.83,75.18,68.26,84.53,75.67,87.90,63.33,68.42,81.65,47.64,69.27,85.38,−8.01,99.91,"Growth Percent, TK-10 [21]: 74.09%; Growth Percent, DU-145 [22]: 64.51%; Growth Percent, MCF7 [23]: 43.81%; Growth Percent, HS 578T [24]: 85.44%; Growth Percent, T-47D [25]: 30.78%; Growth Percent, MDA-MB-468 [26]: 35.36%; category 39-3: survival rate higher than 80% for normal cell SVG p12 and inhibits growth of both tumor cells GBM8401 and GBM8901 [27]: in this category"
"CCCSc1nc2ccc3c(c2[nH]1)C(=O)c1ccccc1C3=O [f1-2, 2-(propylthio)-1H-anthra[1,2-d]imidazole-6,11-dione]",70.83,62.88,71.75,76.83,50.24,69.80,68.12,75.10,55.17,104.18,47.81,82.03,88.24,77.38,79.33,51.07,62.71,99.67,45.47,20.07,"Growth Percent, TK-10 [21]: 35.55%; Growth Percent, DU-145 [22]: 69.29%; Growth Percent, MCF7 [23]: 58.97%; Growth Percent, HS 578T [24]: 33.33%; Growth Percent, T-47D [25]: 53.72%; category 39-3: survival rate higher than 80% for normal cell SVG p12 and inhibits growth of both tumor cells GBM8401 and GBM8901 [27]: in this category"
